Data on three compounds can be found in US7144890B2, “Spiro-pentacyclic compounds” (Hoffman-La Roche Inc., priority 2004, dated 2006).

The structures appear in SMILES notation.

Experiment [1] has as its target T1, human cannabis CB1 receptor (Homo sapiens, UniProt P21554).
T1 construct: expressed in transfected cells; host or cells: human embryonic kidney (HEK) cells, Semliki Forest Virus system, membrane preparation
Kind of experiment: Affinity for cannabinoid CB1 receptor, [3H]-CP-55,940 radioligand binding on HEK cell membranes. To be noted: affinity for the CB1 receptor. As for the experimental part:
The affinity of the compounds of the invention for cannabinoid CB1 receptors was determined using membrane preparations of human embryonic kidney (HEK) cells in which the human cannabis CB1 receptor is transiently transfected using the Semliki Forest Virus system in conjunction with [3H]-CP-55,940 as radioligand. After incubation of a freshly prepared cell membrane preparation with the [3H]-ligand, with or without addition of compounds of the invention, separation of bound and free ligand was performed by filtration over glassfiber filters. Radioactivity on the filter was measured by liquid scintillation counting.

The conditions of experiment [2]: doses of 5, 10 and 20 mg daily; cited from earlier work.

As a reminder, the IC50 is the concentration that gives 50% inhibition. Read a low IC50 as inhibition by little substance.

T1 sequence (P21554 whole entry): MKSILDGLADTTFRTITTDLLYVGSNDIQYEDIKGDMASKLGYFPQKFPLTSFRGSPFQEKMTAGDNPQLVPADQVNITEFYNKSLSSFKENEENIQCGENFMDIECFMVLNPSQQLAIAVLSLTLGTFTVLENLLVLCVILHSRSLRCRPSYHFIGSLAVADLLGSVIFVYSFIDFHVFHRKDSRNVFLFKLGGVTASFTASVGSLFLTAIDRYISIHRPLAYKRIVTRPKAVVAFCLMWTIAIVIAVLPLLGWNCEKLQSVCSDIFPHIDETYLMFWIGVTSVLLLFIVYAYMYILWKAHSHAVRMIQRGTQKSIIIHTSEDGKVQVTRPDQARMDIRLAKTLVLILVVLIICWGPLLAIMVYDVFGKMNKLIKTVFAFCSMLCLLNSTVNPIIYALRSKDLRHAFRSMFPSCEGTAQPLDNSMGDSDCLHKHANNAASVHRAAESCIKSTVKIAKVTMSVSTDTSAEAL

On to `O=C(c1cc2c(cc1F)OC1(O2)c2ccc(Cl)cc2CCc2cc(Cl)ccc21)N1CCOCC1` [Example 1, 4-[(2′,8′-dichloro-6-fluoro-10′,11′-dihydrospiro[1,3-benzodioxole-2,5′-[5H]dibenzo[a,d]cyclohepten]-5-yl)carbonyl]-morpholine], for which the IC50 in experiment [1] came to 13 nM.

The compound `O=C(c1ccc2c(c1)OC1(O2)c2ccc(Cl)cc2CCc2cc(Cl)ccc21)C1CCNCC1` [Example 2, 4-[(2′,8′-dichloro-10′,11′-dihydrospiro[1,3-benzodioxole-2,5′-[5H]dibenzo[a,d]cyclohepten]-5-yl)carbonyl]-piperidine] had an IC50 in experiment [1] of 18 nM.

As to `Cc1c(C(=O)NN2CCCCC2)nn(-c2ccc(Cl)cc2Cl)c1-c1ccc(Cl)cc1` [SR 141716], the “body weight compared to placebo” value in experiment [2] is “significantly reduced body weight”.
